Reference: patent publication US11325899B2, “Benzofurane and benzothiophene derivatives as PGE2 receptor modulators” (IDORSIA PHARMACEUTICALS LTD, priority 2017, dated 2022)

molecular target: T1, EP4 receptor (Homo sapiens, UniProt P35408); experiment: hEP4 cAMP assay (BT549 breast cancer cells, HTRF cAMP, PGE2 stimulation); type: cell-based; details: antagonistic activity, PGE2 6 nM (EC80)
T1 construct: BT549 breast cancer cells, express high endogenous EP4 levels and very low EP2 levels; host or cells: BT549 breast cancer cells
Summary of the method: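 BT549 cells, with endogenous EP4 and very low EP2, were preincubated 45 min at room temperature with compound in HBSS/HEPES/BSA buffer with 2 mM IBMX. They were then stimulated 30 min with 6 nM PGE2 (EC80). cAMP was measured by HTRF competitive immunoassay against a calibrator; IC50 from duplicate dose-response as % of DMSO control.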

T1 sequence (P35408 whole entry): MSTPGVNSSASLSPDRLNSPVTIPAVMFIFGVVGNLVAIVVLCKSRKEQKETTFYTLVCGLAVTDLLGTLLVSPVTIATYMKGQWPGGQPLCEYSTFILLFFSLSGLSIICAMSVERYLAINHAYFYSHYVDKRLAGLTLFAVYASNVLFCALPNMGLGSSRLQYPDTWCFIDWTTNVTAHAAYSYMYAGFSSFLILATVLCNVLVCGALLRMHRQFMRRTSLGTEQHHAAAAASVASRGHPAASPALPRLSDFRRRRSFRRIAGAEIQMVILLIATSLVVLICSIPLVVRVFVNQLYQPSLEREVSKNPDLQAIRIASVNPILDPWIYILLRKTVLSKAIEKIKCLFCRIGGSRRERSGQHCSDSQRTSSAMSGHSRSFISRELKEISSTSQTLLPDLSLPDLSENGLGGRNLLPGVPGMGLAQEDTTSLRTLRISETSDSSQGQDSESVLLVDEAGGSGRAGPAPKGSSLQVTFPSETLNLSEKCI

Compound | IC50
Cc1cc(-c2cc(NCCc3c(C)oc4c(C)cc(F)cc34)ncn2)sc1C(=O)O [Example 2, 5-{6-[2-(5-Fluoro-2,7-dimethyl-benzofuran-3-yl)-ethylamino]-pyrimidin-4-yl}-3-methyl-thiophene-2-carboxylic acid] | 0.117 µM
Cc1cc(-c2cc(NCCc3c(C)sc4c(C)cccc34)ncn2)sc1C(=O)O [Example 3, 5-{6-[2-(2,7-Dimethyl-benzo[b]thiophen-3-yl)-ethylamino]-pyrimidin-4-yl}-3-methyl-thiophene-2-carboxylic acid] | 0.222 µM
Cc1cc(-c2cc(NCCc3c(C)oc4c(C)cc(Cl)cc34)ncn2)sc1C(=O)O [Example 4, 5-{6-[2-(5-Chloro-2,7-dimethyl-benzofuran-3-yl)-ethylamino]-pyrimidin-4-yl}-3-methyl-thiophene-2-carboxylic acid] | 0.394 µM
CSc1cc(-c2cc(NCCc3c(C)sc4c(C)cccc34)ncn2)ccc1C(=O)O [Example 14, 4-{6-[2-(2,7-Dimethyl-benzo[b]thiophen-3-yl)-ethylamino]-pyrimidin-4-yl}-2-methylsulfanyl-benzoic acid] | 0.105 µM
COc1ccc(Cl)c2c(CCNc3cc(-c4ccc(C(=O)O)c(SC)c4)ncn3)c(C)sc12 [Example 15, 4-{6-[2-(4-Chloro-7-methoxy-2-methyl-benzo[b]thiophen-3-yl)-ethylamino]-pyrimidin-4-yl}-2-methylsulfanyl-benzoic acid] | 0.134 µM
CSc1cc(-c2cc(NCCc3c(C)oc4c(C)cc(F)cc34)ncn2)ccc1C(=O)O [Example 16, 4-{6-[2-(5-Fluoro-2,7-dimethyl-benzofuran-3-yl)-ethylamino]-pyrimidin-4-yl}-2-methylsulfanyl-benzoic acid] | 0.189 µM
CSc1cc(-c2cc(NCCc3c(C)sc4c(C)cc(F)cc34)ncn2)ccc1C(=O)O [Example 17, 4-{6-[2-(5-Fluoro-2,7-dimethyl-benzo[b]thiophen-3-yl)-ethylamino]-pyrimidin-4-yl}-2-methylsulfanyl-benzoic acid] | 0.243 µM
CSc1cc(-c2cc(NCCc3c(C)oc4ccccc34)ncn2)ccc1C(=O)O [Example 18, 4-{6-[2-(2-Methyl-benzofuran-3-yl)-ethylamino]-pyrimidin-4-yl}-2-methylsulfanyl-benzoic acid] | 0.414 µM
CSc1cc(-c2cc(NCCc3c(C)sc4c(C)ccc(Cl)c34)ncn2)ccc1C(=O)O [Example 19, 4-{6-[2-(4-Chloro-2,7-dimethyl-benzo[b]thiophen-3-yl)-ethylamino]-pyrimidin-4-yl}-2-methylsulfanyl-benzoic acid] | 0.468 µM
CSc1cc(-c2cc(NCCc3c(C)sc4c(Cl)ccc(Cl)c34)ncn2)ccc1C(=O)O [Example 20, 4-{6-[2-(4,7-Dichloro-2-methyl-benzo[b]thiophen-3-yl)-ethylamino]-pyrimidin-4-yl}-2-methylsulfanyl-benzoic acid] | 0.532 µM
CSc1cc(-c2cc(NCCc3c(C)sc4c(C)c(F)ccc34)ncn2)ccc1C(=O)O [Example 21, 4-{6-[2-(6-Fluoro-2,7-dimethyl-benzo[b]thiophen-3-yl)-ethylamino]-pyrimidin-4-yl}-2-methylsulfanyl-benzoic acid] | 0.564 µM
CCc1oc2c(C)cc(F)cc2c1CCNc1cc(-c2ccc(C(=O)O)c(SC)c2)ncn1 [Example 22, 4-{6-[2-(2-Ethyl-5-fluoro-7-methyl-benzofuran-3-yl)-ethylamino]-pyrimidin-4-yl}-2-methylsulfanyl-benzoic acid] | 0.661 µM
CSc1cc(-c2cc(NCCc3c(C)sc4c(Cl)cc(F)cc34)ncn2)ccc1C(=O)O [Example 23, 4-{6-[2-(7-Chloro-5-fluoro-2-methyl-benzo[b]thiophen-3-yl)-ethylamino]-pyrimidin-4-yl}-2-methylsulfanyl-benzoic acid] | 0.667 µM
CSc1cc(-c2cc(NCCc3c(C)sc4ccccc34)ncn2)ccc1C(=O)O [Example 24, 4-{6-[2-(2-Methyl-benzo[b]thiophen-3-yl)-ethylamino]-pyrimidin-4-yl}-2-methylsulfanyl-benzoic acid] | 0.795 µM
CCOc1cc(-c2cc(NCCc3c(C)sc4c(C)ccc(F)c34)ncn2)sc1C(=O)O [Example 25, 3-Ethoxy-5-{6-[2-(4-fluoro-2,7-dimethyl-benzo[b]thiophen-3-yl)-ethylamino]-pyrimidin-4-yl}-thiophene-2-carboxylic acid] | 0.001 µM
CCOc1cc(-c2cc(NCCc3c(C)sc4c(OC)ccc(F)c34)ncn2)sc1C(=O)O [Example 28, 3-Ethoxy-5-{6-[2-(4-fluoro-7-methoxy-2-methyl-benzo[b]thiophen-3-yl)-ethylamino]-pyrimidin-4-yl}-thiophene-2-carboxylic acid] | 0.005 µM
CCOc1cc(-c2cc(NCCc3c(C)sc4c(C)ccc(Cl)c34)ncn2)sc1C(=O)O [Example 29, 5-{6-[2-(4-Chloro-2,7-dimethyl-benzo[b]thiophen-3-yl)-ethylamino]-pyrimidin-4-yl}-3-ethoxy-thiophene-2-carboxylic acid] | 0.009 µM

Compound | IC50
CCOc1cc(-c2cc(NCCc3c(C)sc4c(OC)ccc(Cl)c34)ncn2)sc1C(=O)O [Example 30, 5-{6-[2-(4-Chloro-7-methoxy-2-methyl-benzo[b]thiophen-3-yl)-ethylamino]-pyrimidin-4-yl}-3-ethoxy-thiophene-2-carboxylic acid] | 0.011 µM
CCOc1cc(-c2cc(NCCc3c(C)oc4c(OC)cc(F)c(F)c34)ncn2)sc1C(=O)O [Example 31, 5-{6-[2-(4,5-Difluoro-7-methoxy-2-methyl-benzofuran-3-yl)-ethylamino]-pyrimidin-4-yl}-3-ethoxy-thiophene-2-carboxylic acid] | 0.013 µM
CCOc1cc(-c2cc(NCCc3c(C)sc4c(C)cc(F)cc34)ncn2)sc1C(=O)O [Example 32, 3-Ethoxy-5-{6-[2-(5-fluoro-2,7-dimethyl-benzo[b]thiophen-3-yl)-ethylamino]-pyrimidin-4-yl}-thiophene-2-carboxylic acid] | 0.013 µM
CCOc1cc(-c2cc(NCCc3csc4ccccc34)ncn2)sc1C(=O)O [Example 33, 5-[6-(2-Benzo[b]thiophen-3-yl-ethylamino)-pyrimidin-4-yl]-3-ethoxy-thiophene-2-carboxylic acid] | 0.018 µM
CCOc1cc(-c2cc(NCCc3c(C)oc4c(OC)ccc(F)c34)ncn2)sc1C(=O)O [Example 34, 3-Ethoxy-5-{6-[2-(4-fluoro-7-methoxy-2-methyl-benzofuran-3-yl)-ethylamino]-pyrimidin-4-yl}-thiophene-2-carboxylic acid] | 0.022 µM
CCOc1cc(-c2cc(NCCc3c(C)oc4c(Cl)cccc34)ncn2)sc1C(=O)O [Example 35, 5-{6-[2-(7-Chloro-2-methyl-benzofuran-3-yl)-ethylamino]-pyrimidin-4-yl}-3-ethoxy-thiophene-2-carboxylic acid] | 0.036 µM
CCOc1cc(-c2cc(NCCc3c(C)sc4c(C)cccc34)ncn2)sc1C(=O)O [Example 36, 5-{6-[2-(2,7-Dimethyl-benzo[b]thiophen-3-yl)-ethylamino]-pyrimidin-4-yl}-3-ethoxy-thiophene-2-carboxylic acid] | 0.044 µM
CCOc1cc(-c2cc(NCCc3c(C)oc4c(C)cc(F)cc34)ncn2)sc1C(=O)O [Example 37, 3-Ethoxy-5-{6-[2-(5-fluoro-2,7-dimethyl-benzofuran-3-yl)-ethylamino]-pyrimidin-4-yl}-thiophene-2-carboxylic acid] | 0.049 µM
CCOc1cc(-c2cc(NCCc3c(C)oc4c(OC)cc(Cl)cc34)ncn2)sc1C(=O)O [Example 38, 5-{6-[2-(5-Chloro-7-methoxy-2-methyl-benzofuran-3-yl)-ethylamino]-pyrimidin-4-yl}-3-ethoxy-thiophene-2-carboxylic acid] | 0.08 µM
CCOc1cc(-c2cc(NCCc3c(CC)oc4c(C)cc(F)cc34)ncn2)sc1C(=O)O [Example 39, 3-Ethoxy-5-{6-[2-(2-ethyl-5-fluoro-7-methyl-benzofuran-3-yl)-ethylamino]-pyrimidin-4-yl}-thiophene-2-carboxylic acid] | 0.112 µM
COc1cc(-c2cc(NCCc3c(C)sc4c(OC)ccc(Cl)c34)ncn2)ccc1C(=O)O [Example 40, 4-{6-[2-(4-Chloro-7-methoxy-2-methyl-benzo[b]thiophen-3-yl)-ethylamino]-pyrimidin-4-yl}-2-methoxy-benzoic acid] | 0.433 µM
CCSc1cc(-c2cc(NCCc3c(C)sc4c(C)cccc34)ncn2)ccc1C(=O)O [Example 42, 4-{6-[2-(2,7-Dimethyl-benzo[b]thiophen-3-yl)-ethylamino]-pyrimidin-4-yl}-2-ethylsulfanyl-benzoic acid] | 0.224 µM
CCSc1cc(-c2cc(NCCc3c(C)sc4ccccc34)ncn2)ccc1C(=O)O [Example 43, 2-Ethylsulfanyl-4-{6-[2-(2-methyl-benzo[b]thiophen-3-yl)-ethylamino]-pyrimidin-4-yl}-benzoic acid] | 0.497 µM
CCSc1cc(-c2cc(NCCc3c(C)oc4ccccc34)ncn2)ccc1C(=O)O [Example 44, 2-Ethylsulfanyl-4-{6-[2-(2-methyl-benzofuran-3-yl)-ethylamino]-pyrimidin-4-yl}-benzoic acid] | 1.38 µM
CCCc1cc(-c2cc(NCCc3c(C)sc4c(C)cc(F)cc34)ncn2)ccc1C(=O)O [Example 45, 4-{6-[2-(5-Fluoro-2,7-dimethyl-benzo[b]thiophen-3-yl)-ethylamino]-pyrimidin-4-yl}-2-propyl-benzoic acid] | 0.147 µM
Cc1sc2c(C)cc(F)cc2c1CCNc1cc(-c2cc(C(F)(F)F)c(C(=O)O)s2)ncn1 [Example 46, 5-{6-[2-(5-Fluoro-2,7-dimethyl-benzo[b]thiophen-3-yl)-ethylamino]-pyrimidin-4-yl}-3-trifluoromethyl-thiophene-2-carboxylic acid] | 0.03 µM
